pIC50: −log10 of the molar value.
molecular target: T1, GST-RIPK1 (recombinant GST-RIPK1 kinase domain (residues 1-327)) (Homo sapiens, UniProt Q13546); test: RIPK1-ADP-Glo enzymatic assay; type: biochemical; settings: 25 nM GST-RIPK1, 300 μM ATP, 3 μM dephosphorylated-MBP; 30 minutes pre-incubation, 150 minutes reaction; ten-point titration
T1 construct: recombinant GST-RIPK1 kinase domain (residues 1-327) enzyme; made in house; host or cells: baculovirus-transfected Sf21 insect cells
T1 sequence (Q13546 1-327): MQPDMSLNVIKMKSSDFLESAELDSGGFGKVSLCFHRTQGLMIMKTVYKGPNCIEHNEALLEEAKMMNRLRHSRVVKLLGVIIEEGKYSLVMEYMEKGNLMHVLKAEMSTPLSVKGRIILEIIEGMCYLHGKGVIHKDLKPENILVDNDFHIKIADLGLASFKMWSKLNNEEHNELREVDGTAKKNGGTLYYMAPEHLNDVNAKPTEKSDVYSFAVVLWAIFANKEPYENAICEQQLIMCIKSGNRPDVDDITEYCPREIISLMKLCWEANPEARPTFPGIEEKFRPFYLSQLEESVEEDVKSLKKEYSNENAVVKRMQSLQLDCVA
Method in brief: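 Ten-point 1:3 titrations from 100000 nM, 1% DMSO, were preincubated 30 min with 25 nM GST-RIPK1 (1-327) before starting with 300 μM ATP plus 3 μM dephosphorylated MBP; 150 min reaction. ADP-Glo luminescence measured ATP-to-ADP conversion; EC50 by four-parameter sigmoidal regression.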

Row | SMILES | pIC50
1 | N#Cc1cncc2c1O[C@H]1C[C@@H]2N(C(=O)C2(C(F)(F)F)CC2)C1 [Compound 1-75, (2S,5S)-4-(1-(trifluoromethyl)cyclopropane-1-carbonyl)-2,3,4,5-tetrahydro-2,5-methanopyrido[3,4-f][1,4]oxazepine-9-carbonitrile] | 6.26
2 | CC1(C(=O)N2C[C@@H]3C[C@H]2c2cncc(C#N)c2O3)CC1 [Compound 1-76, (2S,5S)-4-(1-methylcyclopropane-1-carbonyl)-2,3,4,5-tetrahydro-2,5-methanopyrido[3,4-f][1,4]oxazepine-9-carbonitrile] | 6.11
3 | CC1(C(=O)N2C[C@@H]3C[C@H]2c2cncc(C#N)c2O3)CC(F)(F)C1 [Compound 1-77, (2S,5S)-4-(3,3-difluoro-1-methylcyclobutane-1-carbonyl)-2,3,4,5-tetrahydro-2,5-methanopyrido[3,4-f][1,4]oxazepine-9-carbonitrile] | 6.86
4 | N#Cc1cncc2c1O[C@H]1C[C@@H]2N(C(=O)C23CCCCC2C3)C1 (stereo partly drawn) [Compound 1-78, (2S,5S)-4-(bicyclo[4.1.0]heptane-1-carbonyl)-2,3,4,5-tetrahydro-2,5-methanopyrido[3,4-f][1,4]oxazepine-9-carbonitrile] | 7.11
5 | CC(C)C1(C(=O)N2C[C@@H]3C[C@H]2c2cncc(C#N)c2O3)CC1 [Compound 1-79, (2S,5S)-4-(1-isopropylcyclopropane-1-carbonyl)-2,3,4,5-tetrahydro-2,5-methanopyrido[3,4-f][1,4]oxazepine-9-carbonitrile] | 6.35
6 | COc1cnc(N2CCC(F)(C(=O)N3C[C@@H]4C[C@H]3c3cncc(C#N)c3O4)CC2)nc1 [Compound 1-80, (2S,5S)-4-(4-fluoro-1-(5-methoxypyrimidin-2-yl)piperidine-4-carbonyl)-2,3,4,5-tetrahydro-2,5-methanopyrido[3,4-f][1,4]oxazepine-9-carbonitrile] | 6.48
7 | N#Cc1cncc2c1O[C@H]1C[C@@H]2N(C(=O)C23CCCC2C3(F)F)C1 (stereo partly drawn) [Compound 1-81, (2S,5S)-4-(6,6-difluorobicyclo[3.1.0]hexane-1-carbonyl)-2,3,4,5-tetrahydro-2,5-methanopyrido[3,4-f][1,4]oxazepine-9-carbonitrile] | 7.03
8 | Cc1ncc2c(c1C#N)O[C@H]1C[C@@H]2N(C(=O)C23CCC(C(F)(F)F)(CC2)C3)C1 [Compound 1-82, (2S,5S)-8-methyl-4-(4-(trifluoromethyl)bicyclo[2.2.1]heptane-1-carbonyl)-2,3,4,5-tetrahydro-2,5-methanopyrido[3,4-f](1,4]oxazepine-9-carbonitrile] | 7.89
9 | N#Cc1ccnc(N2CCC(F)(C(=O)N3C[C@@H]4C[C@H]3c3cncc(C#N)c3O4)CC2)n1 [Compound 1-83, (2S,5S)-4-(1-(4-cyanopyrimidin-2-yl)-4-fluoropiperidine-4-carbonyl)-2,3,4,5-tetrahydro-2,5-methanopyrido[3,4-f][1,4]oxazepine-9-carbonitrile] | 7.52
10 | CN(C)C(C)(C)C(=O)N1C[C@@H]2C[C@H]1c1cncc(C#N)c1O2 [Compound 1-90, (2S,5S)-4-(2-(dimethylamino)-2-methylpropanoyl)-2,3,4,5-tetrahydro-2,5-methanopyrido[3,4-f][1,4]oxazepine-9-carbonitrile] | 7.07
11 | CN(C)C1(C(=O)N2C[C@@H]3C[C@H]2c2cncc(C#N)c2O3)CCC1 [Compound 1-91, (2S,5S)-4-(1-(dimethylamino)cyclobutane-1-carbonyl)-2,3,4,5-tetrahydro-2,5-methanopyrido[3,4-f][1,4]oxazepine-9-carbonitrile] | 7.19
12 | N#Cc1cncc2c1O[C@H]1C[C@@H]2N(C(=O)C23CC(F)(C2)C3)C1 [Compound 1-92, (2S,5S)-4-(3-fluorobicyclo[1.1.1]pentane-1-carbonyl)-2,3,4,5-tetrahydro-2,5-methanopyrido[3,4-f][1,4]oxazepine-9-carbonitrile] | 7.08
13 | N#Cc1cncc2c1O[C@H]1C[C@@H]2N(C(=O)C23CC(Cl)(C2)C3)C1 [Compound 1-93, (2S,5S)-4-(3-chlorobicyclo[1.1.1]pentane-1-carbonyl)-2,3,4,5-tetrahydro-2,5-methanopyrido[3,4-f][1,4]oxazepine-9-carbonitrile] | 7.06
14 | CC12CCC(C(=O)N3C[C@@H]4C[C@H]3c3cncc(C#N)c3O4)(CC1)C2 [Compound 1-94, (2S,5S)-4-(4-methylbicyclo[2.2.1]heptane-1-carbonyl)-2,3,4,5-tetrahydro-2,5-methanopyrido[3,4-f][1,4]oxazepine-9-carbonitrile] | 7.82

Further lines, results first:

Row | pIC50 | SMILES
15 | 7.52 | C=CC(C)(C)C(=O)N1C[C@@H]2C[C@H]1c1cncc(C#N)c1O2 [Compound 1-95, (2S,5S)-4-(2,2-dimethylbut-3-enoyl)-2,3,4,5-tetrahydro-2,5-methanopyrido[3,4-f][1,4]oxazepine-9-carbonitrile]
16 | 6.83 | C#CC(C)(C)C(=O)N1C[C@@H]2C[C@H]1c1cncc(C#N)c1O2 [Compound 1-96, (2S,5S)-4-(2,2-dimethylbut-3-ynoyl)-2,3,4,5-tetrahydro-2,5-methanopyrido[3,4-f][1,4]oxazepine-9-carbonitrile]
17 | 7.04 | COC12CCC(C(=O)N3C[C@@H]4C[C@H]3c3cncc(C#N)c3O4)(CC1)C2 [Compound 1-97, (2S,5S)-4-(4-methoxybicyclo[2.2.1]heptane-1-carbonyl)-2,3,4,5-tetrahydro-2,5-methanopyrido[3,4-f][1,4]oxazepine-9-carbonitrile]
18 | 7.24 | CCC12CC(C(=O)N3C[C@@H]4C[C@H]3c3cncc(C#N)c3O4)(C1)C2 [Compound 1-98, (2S,5S)-4-(3-ethylbicyclo[1.1.1]pentane-1-carbonyl)-2,3,4,5-tetrahydro-2,5-methanopyrido[3,4-f][1,4]oxazepine-9-carbonitrile]
19 | 7.32 | CC(C)C12CC(C(=O)N3C[C@@H]4C[C@H]3c3cncc(C#N)c3O4)(C1)C2 [Compound 1-99, (2S,5S)-4-(3-isopropylbicyclo[1.1.1]pentane-1-carbonyl)-2,3,4,5-tetrahydro-2,5-methanopyrido[3,4-f][1,4]oxazepine-9-carbonitrile]
20 | 7.55 | N#Cc1cncc2c1O[C@H]1C[C@@H]2N(C(=O)C23CCC(C#N)(C2)C3)C1 [Compound 1-100, (2S,5S)-4-(4-cyanobicyclo[2.1.1]hexane-1-carbonyl)-2,3,4,5-tetrahydro-2,5-methanopyrido[3,4-f][1,4]oxazepine-9-carbonitrile]
21 | 6.88 | N#Cc1cncc2c1O[C@H]1C[C@@H]2N(C(=O)[C@H]2C[C@@H](Oc3ccc(F)cc3F)C2)C1 [Compound 1-101]
22 | 7.12 | N#Cc1cncc2c1O[C@H]1C[C@@H]2N(C(=O)[C@H]2C[C@H](Oc3ccc(F)cc3F)C2)C1 [Compound 1-102]
23 | 6.79 | CC(C)(OC(F)(F)F)C(=O)N1C[C@@H]2C[C@H]1c1cncc(C#N)c1O2 [Compound 1-103, (2S,5S)-4-(2-methyl-2-(trifluoromethoxy)propanoyl)-2,3,4,5-tetrahydro-2,5-methanopyrido[3,4-f][1,4]oxazepine-9-carbonitrile]
24 | 6.69 | CC12CC(C(=O)N3C[C@@H]4C[C@H]3c3cncc(C#N)c3O4)(C1)C2 [Compound 1-104, (2S,5S)-4-(3-methylbicyclo[1.1.1]pentane-1-carbonyl)-2,3,4,5-tetrahydro-2,5-methanopyrido[3,4-f][1,4]oxazepine-9-carbonitrile]

— patent publication US20240228506A1, “RIPK1 INHIBITORS AND METHODS OF USE” (Merck Sharp & Dohme LLC, priority 2021, published 2024)
